Measurements from patent publication US10420341B2, “Herbicidal phenylpyrimidines” (BASF SE, priority 2015, dated 2019).

How the values were obtained:
APESV = experiment: greenhouse pre-emergence herbicidal test; format: in vivo, Apera spica-venti; settings: pre-emergence method, scale from 0 to 100
Text: (§1) The seeds of the test plants were sown separately for each species. For the pre-emergence treatment, the active ingredients, which had been suspended or emulsified in water, were applied directly after sowing by means of finely distributing nozzles. The containers were irrigated gently to promote germination and growth and subsequently covered with transparent plastic hoods until the plants had rooted. This cover caused uniform germination of the test plants, unless this had been impaired by the active ingredients. Depending on the species, the plants were kept at 10-25° C. or 20-35° C., respectively. The test period extended over 2 to 4 weeks. During this time, the plants were tended, and their response to the individual treatments was evaluated. Evaluation was carried out using a scale from 0 to 100. 100 means no emergence of the plants, or complete destruction of at least the aerial moieties, and 0 means no damage, or normal course of growth. […] The plants used in the greenhouse experiments were of the following species: [table]

ECHCG [1] = experiment: greenhouse pre-emergence herbicidal test; format: in vivo, Echinocloa crus-galli; settings: pre-emergence method, scale from 0 to 100
Text: as §1

ALOMY = experiment: greenhouse post-emergence herbicidal test; format: in vivo, Alopercurus myosuroides; settings: post-emergence method, scale from 0 to 100
Text: (§2) The seeds of the test plants were sown separately for each species. For the post-emergence treatment, the test plants were first grown to a height of 3 to 15 cm, depending on the plant habit, and only then treated with the active ingredients which had been suspended or emulsified in water. For this purpose, the test plants were either sown directly and grown in the same containers, or they were first grown separately as seedlings and transplanted into the test containers a few days prior to treatment. Depending on the species, the plants were kept at 10-25° C. or 20-35° C., respectively. The test period extended over 2 to 4 weeks. During this time, the plants were tended, and their response to the individual treatments was evaluated. Evaluation was carried out using a scale from 0 to 100. 100 means no emergence of the plants, or complete destruction of at least the aerial moieties, and 0 means no damage, or normal course of growth. […] The plants used in the greenhouse experiments were of the following species: [table]

AVEFA = experiment: greenhouse post-emergence herbicidal test; format: in vivo, Avena fatua; settings: post-emergence method, scale from 0 to 100
Text: as §2

ECHCG [2] = experiment: greenhouse post-emergence herbicidal test; format: in vivo, Echinocloa crus-galli; settings: post-emergence method, application rate 500 g/ha, scale from 0 to 100
Text: as §2

Row | SMILES | herbicidal activity against APESV (APESV; application rate 500 g/ha) | herbicidal activity against ECHCG (ECHCG [1]; application rate 500 g/ha) | herbicidal activity against ALOMY (ALOMY; application rate 500 g/ha) | herbicidal activity against AVEFA (AVEFA; application rate 500 g/ha) | herbicidal activity against APESV (APESV; application rate 1000 g/ha) | herbicidal activity against ALOMY (ALOMY; application rate 1000 g/ha) | herbicidal activity against AVEFA (AVEFA; application rate 1000 g/ha) | herbicidal activity against ECHCG (ECHCG [2]) | herbicidal activity against ECHCG (ECHCG [1]; application rate 1000 g/ha)
1 | O=C(O)c1nc(C2CC2)ncc1-c1ccc(F)cc1F [example 133] | very good (a very good herbicidal activity is given at values of at least 85) | very good (a very good herbicidal activity is given at values of at least 85) | very good (a very good herbicidal activity is given at values of at least 85) | very good (a very good herbicidal activity is given at values of at least 85) |  |  |  |  | 
2 | O=C(O)c1nc(C2CC2)ncc1-c1c(F)cc(F)cc1F [example 134] | very good (a very good herbicidal activity is given at values of at least 85) | very good (a very good herbicidal activity is given at values of at least 85) | very good (a very good herbicidal activity is given at values of at least 85) | very good (a very good herbicidal activity is given at values of at least 85) |  |  |  |  | 
3 | O=C(O)c1nc(C2CC2)ncc1-c1ccccc1Cl [example 141] | very good (a very good herbicidal activity is given at values of at least 85) | very good (a very good herbicidal activity is given at values of at least 85) | very good (a very good herbicidal activity is given at values of at least 85) | very good (a very good herbicidal activity is given at values of at least 85) |  |  |  |  | 
4 | O=C(O)c1nc(C2CC2)ncc1-c1c(Cl)cc(Cl)cc1Cl [example 149] |  |  |  |  | very good (a very good herbicidal activity is given at values of at least 85) | very good (a very good herbicidal activity is given at values of at least 85) | very good (a very good herbicidal activity is given at values of at least 85) |  | 
5 | N#Cc1cc(F)ccc1-c1cnc(C2CC2)nc1C(=O)O [example 157] |  |  |  |  | very good (a very good herbicidal activity is given at values of at least 85) | very good (a very good herbicidal activity is given at values of at least 85) | very good (a very good herbicidal activity is given at values of at least 85) |  | 
6 | Cc1ccc(C)c(-c2cnc(C3CC3)nc2C(=O)O)c1 [example 165] | very good (a very good herbicidal activity is given at values of at least 85) |  | very good (a very good herbicidal activity is given at values of at least 85) | very good (a very good herbicidal activity is given at values of at least 85) |  |  |  |  | 
7 | COc1cccc(Cl)c1-c1cnc(C2CC2)nc1C(=O)O [example 178] | very good (a very good herbicidal activity is given at values of at least 85) | very good (a very good herbicidal activity is given at values of at least 85) | good (A good herbicidal activity is given at values of at least 70) | good (A good herbicidal activity is given at values of at least 70) |  |  |  |  | 
8 | COC(=O)c1nc(C2CC2)ncc1-c1ccc(F)cc1F [example 192] | very good (a very good herbicidal activity is given at values of at least 85) | very good (a very good herbicidal activity is given at values of at least 85) | very good (a very good herbicidal activity is given at values of at least 85) | very good (a very good herbicidal activity is given at values of at least 85) |  |  |  |  | 
9 | COC(=O)c1nc(C2CC2)ncc1-c1c(F)cc(F)cc1F [example 193] | very good (a very good herbicidal activity is given at values of at least 85) | very good (a very good herbicidal activity is given at values of at least 85) | very good (a very good herbicidal activity is given at values of at least 85) | very good (a very good herbicidal activity is given at values of at least 85) |  |  |  |  | 
10 | COC(=O)c1nc(C2CC2)ncc1-c1c(F)cc(Cl)cc1Cl [example 194] | good (A good herbicidal activity is given at values of at least 70) |  | good (A good herbicidal activity is given at values of at least 70) | very good (a very good herbicidal activity is given at values of at least 85) |  |  |  |  | 
11 | COC(=O)c1nc(C2CC2)ncc1-c1c(Cl)cc(Cl)cc1Cl [example 209] |  |  |  |  | very good (a very good herbicidal activity is given at values of at least 85) | very good (a very good herbicidal activity is given at values of at least 85) | very good (a very good herbicidal activity is given at values of at least 85) |  | 
12 | COC(=O)c1nc(C2CC2)ncc1-c1cc(F)ccc1C#N [example 218] | very good (a very good herbicidal activity is given at values of at least 85) | very good (a very good herbicidal activity is given at values of at least 85) |  | very good (a very good herbicidal activity is given at values of at least 85) |  |  |  | very good (a very good herbicidal activity is given at values of at least 85) | 
13 | COC(=O)c1nc(C2CC2)ncc1-c1ccc(F)cc1C#N [example 220] | very good (a very good herbicidal activity is given at values of at least 85) |  | very good (a very good herbicidal activity is given at values of at least 85) | very good (a very good herbicidal activity is given at values of at least 85) |  |  |  |  | 
14 | COC(=O)c1nc(C2CC2)ncc1-c1ccccc1C(F)(F)F [example 239] |  |  |  |  | very good (a very good herbicidal activity is given at values of at least 85) |  | very good (a very good herbicidal activity is given at values of at least 85) |  | very good (a very good herbicidal activity is given at values of at least 85)
15 | CC(C)OC(=O)c1nc(C2CC2)ncc1-c1ccccc1Cl [example 252] |  |  |  |  |  | very good (a very good herbicidal activity is given at values of at least 85) | very good (a very good herbicidal activity is given at values of at least 85) |  | very good (a very good herbicidal activity is given at values of at least 85)
16 | O=C(OC1CC1)c1nc(C2CC2)ncc1-c1ccccc1Cl [example 262] | very good (a very good herbicidal activity is given at values of at least 85) | very good (a very good herbicidal activity is given at values of at least 85) |  | good (A good herbicidal activity is given at values of at least 70) |  |  |  |  | 
17 | CC(C)OC(=O)CSC(=O)c1nc(C2CC2)ncc1-c1ccccc1Cl [example 279] | very good (a very good herbicidal activity is given at values of at least 85) | very good (a very good herbicidal activity is given at values of at least 85) |  | very good (a very good herbicidal activity is given at values of at least 85) |  |  |  |  | 
18 | COc1ccc(CSC(=O)c2nc(C3CC3)ncc2-c2ccccc2Cl)cc1 [example 282] | very good (a very good herbicidal activity is given at values of at least 85) |  |  | very good (a very good herbicidal activity is given at values of at least 85) |  |  |  |  | 
19 | CCSC(=O)c1nc(C2CC2)ncc1-c1ccccc1Cl [example 291] | very good (a very good herbicidal activity is given at values of at least 85) | very good (a very good herbicidal activity is given at values of at least 85) |  | very good (a very good herbicidal activity is given at values of at least 85) |  |  |  | very good (a very good herbicidal activity is given at values of at least 85) | 
20 | COC(=O)c1nc(C(F)(F)F)ncc1-c1ccccc1Cl [example 316] |  |  |  |  | good (A good herbicidal activity is given at values of at least 70) |  | good (A good herbicidal activity is given at values of at least 70) |  | good (A good herbicidal activity is given at values of at least 70)
